Assay results taken from US10968190B2, “Processes for preparing oxathiazin-like compounds” (GEISTLICH PHARMA AG, priority 2014, dated 2021).
Converted amounts (≈) assume the structure as drawn. Where two headings read alike, the source gives them in different places.

Tests used:
[1] = test system: human glioma cell line LN-229; assay: Cytotoxicity assay in LN-229 cells (crystal violet); type: cell-based; details: for OD (absorbance at 540 nm; high values = high cell viability): 24 h; for EC50: Homo sapiens, LN-229, 24 h
Procedure: Cell lines: The human glioma cell line LN-229 was used as described previously (Rodak et al. 2005) as well as the human colon adenocarcinoma cell line SW480.
Cytotoxicity assay: Dissociated LN-229 cells were seeded into 96-well plates at a density of 10^4 cells per well in 100 μl of culture medium. […] Triplicate cultures were prepared for each sample. After 24 h of incubation at […], the remaining adherent viable cells were stained using crystal violet as described (Rodack et al. 2005). Cell viability was determined by measuring the absorbancy at 540 nm. The results are expressed as killing rate given by the difference between 100% of cells and percentage of cells surviving. EC50 values correspond to the concentration inducing 50% cell death.

[2] = Half-life in human fresh blood in vitro by GC; type: in vitro ADME; details: 37° C.
Staphylococcus aureus = assay: Antibacterial activity against Staphylococcus aureus; type: cell-based
Escherichia coli = assay: Antibacterial activity against Escherichia coli; type: cell-based
[3] = test system: MRSA lines 188, 189, 193, 194 and 195; assay: Punch plate tests against MRSA; type: cell-based
[4] = test system: cancers identified herein; assay: Administration to patients having cancers (Example 5); type: in vivo; details: Example 5, present tense
Procedure: Each of these compounds is administered with Vitamin D3, a derivative, metabolite or analog thereof and the combination is found to increase the anti-tumor effects of the compounds.

[5] = test system: tumor cell lines AsPC-1, BxPC-3 and HCT-116; assay: Inhibition of cell viability in tumor cell lines; type: cell-based; details: read-out: Half-maximal inhibition of cell viability
Description: These effects are similar to those observed in glioma cell line LN-229. The induction of cell death was due to apoptosis and necrosis (most likely necroptosis). […] Thus, there is a redox-directed mechanism of action.

[6] = test system: pancreas tumor cells (AsPC-1, BxPC-3 and HCT-116); assay: Growth inhibition of pancreas tumor cells; type: cell-based; details: read-out: half-maximal concentration of growth inhibition
Procedure: The growth of pancreas tumor cells (AsPC-1, BxPC-3 and HCT-116) was inhibited by compound 2250 with a half-maximal concentration of 300 μM, which is considerably lower than the concentration needed to elicit cytotoxicity.

[7] = test system: multicellular pancreatic tumor (Panc Tul or BxPC-3) spheroids; assay: Pancreatic stem cell-like multicellular spheroid toxicity assay; type: cell-based; details: taurolidine 500 μM, compound 2250 1000 μM, 48 hours
Description: Multicellular spheroids are composed of tumor cells growing in a 3-dimensional structure stimulating the growth, micro-environmental conditions and stem cell-like characteristics of real tumors. The multicellular tumor spheroid (MCTS) model compensates for many of the deficiencies seen in monolayer cultures. Spheroids on the scale of 200-500 μm develop chemical gradients of oxygen, nutrients, and catabolites, while having morphological and functional features similar to tumors. Therefore, assays utilizing the MCTS model allow for the assessment of drug penetration and are more predictive of in vivo success compared with monolayer cultures. MCTS assays are a tumor model system of intermediate complexity between standard monolayer and tumors in vivo.
Pancreatic tumor cells (Panc Tu-1, BxPC-3, Mia Paca-2, ASPC1) and pancreatic primary tumor cells (Bo80) were seeded in ultra-low adhesion plates in special stem cell media.
Pancreatic tumor cells (ASPC1, Mia Paca-2, Panc Tul, BxPC-3) and pancreatic primary tumor cells (Bo80) were raised in monolayer culture before seeding in ultra low adhesion plates under conditions of special stem cell media to form multicellular spheroids and passed through a cell strainer to exclude aggregates. […]

MiaPaca2 tumor = assay: MiaPaca2 subcutaneous tumor model in nude mice; type: in vivo, nude mice (NMRI-Foxn1 nu/nu); details: 500 mg/kg i.p. on alternating days
PancTu I tumor = assay: PancTu I subcutaneous tumor model in nude mice; type: in vivo, nude mice (NMRI-Foxn1 nu/nu); details: 500 mg/kg i.p. on alternating days
[8] = test system: pancreatic primary tumors (Bo 73); assay: Xenograft model of pancreatic primary tumors Bo 73; type: in vivo; details: Bo 73, observed for 15 days; differences not statistically relevant
Description: (§1) However, the differences in tumor volumes were not statistically relevant, likely due to the short duration of the study and the slow growth rate of the tumors.

[9] = test system: pancreatic primary tumors (Bo 70); assay: Xenograft model of pancreatic primary tumors Bo 70; type: in vivo; details: Bo 70, observed for 23 days
Description: as §1

[10] = Water solubility and isotonicity; type: physicochemical
Description: In certain embodiments, no PVP necessary to increase the solubility. For example, a 3.2% solution 2250 is isotonic. This is an unexpected advantage over taurolidine.

[11] = Toxicity in mice during the tumor study; details: 500 mg/kg i.p. on alternating days
Procedure: 1×10^7 tumor cells (PancTu-I and MiaPaca 2) were injected subcutaneously into the flank.
Tumors were grown to a size of 200 mm^3 before the treatment was started. Mice were treated on alternating days with 500 mg/kg*body weight (BW).

SMILES: O=S1(=O)CCOCN1 [compound 2250, Tetrahydro1,4,5-oxathiazin-4-dioxide]
- OD (absorbance at 540 nm; high values = high cell viability) ([1]; 4 μg/ml): 1.477
- OD (absorbance at 540 nm; high values = high cell viability) ([1]; 8 μg/ml): 1.527
- OD (absorbance at 540 nm; high values = high cell viability) ([1]; 15.5 μg/ml): 1.482
- OD (absorbance at 540 nm; high values = high cell viability) ([1]; 31 μg/ml): 1.482
- OD (absorbance at 540 nm; high values = high cell viability) ([1]; 62.5 μg/ml): 0.372
- OD (absorbance at 540 nm; high values = high cell viability) ([1]; 250 μg/ml): 0.120
- OD (absorbance at 540 nm; high values = high cell viability) ([1]; 500 μg/ml): 0.141
- OD (absorbance at 540 nm; high values = high cell viability) ([1]; 1000 μg/ml): 0.189
- EC50 ([1]; read-out: EC50 (concentration inducing 50% cell death), LN-229 cells, 24 h incubation): 45 mg/L (≈ 328 µM)
- EC50 ([1]; read-out: half-maximal concentration of inducing cell death EC50): 50 mg/L (≈ 365 µM)
- concentration in human fresh blood ([2]; After 1 hour): 50.6 ppm
- concentration in human fresh blood ([2]; After 2 hours): 47.6 ppm
- concentration in human fresh blood ([2]; After 20 hours): 38.6-39.0 ppm
- concentration in human fresh blood ([2]; Baseline Value): 49.0 ppm
- half-life at 49 ppm ([2]; human fresh blood, in vitro): > 24 h
- antibacterial activity relative to Taurultam (Staphylococcus aureus; Staph. aureus): about double as high as Taurultam
- antibacterial activity (Staphylococcus aureus; Staphylococcus aureus): very high level of antibacterial activity
- antibacterial activity (Escherichia coli): very high level of antibacterial activity
- activity in punch plate tests [3]: highly active
- effectiveness in treating cancers in patients [4]: effective in treating such cancers
- safety for use in patients [4]: safe for use in patients
- IC50 [5]: 750 to 1000 µM
- IC50 [6]: 300 µM
- effect on pancreatic stem cell like multicellular spheroid cultures [7]: antineoplastic effect
- decrease of MiaPaca2 tumor volume compared to control (MiaPaca2 tumor): over 3 fold
- decrease of PancTu I tumor volume compared to control (PancTu I tumor): about 2 fold
- relative tumor volume compared to control [8]: further reduced relative tumor volume compared to control
- tumor volume compared to control [9]: significantly reduce tumor volume compared to control
- solubility in water [10]: very soluble in water
- concentration of isotonic solution ([10]; no PVP): 3.2%
- toxic effect on the mice during the study [11]: no toxic effect
